Data reported in patent US20200247897A1, “THERAPEUTIC ANTIBODIES BASED ON MUTATED IGG HEXAMERS” (GENMAB B.V., priority 2017, published 2020).
Where two headings read alike, the source gives them in different places.

How the values were obtained:
[1] = tested on: LS-411N; experiment: Drug combination screen (ATPlite, Synergy Score), LS-411N; format: cell-based, human
[2] = tested on: SW480; experiment: Drug combination screen (ATPlite, Synergy Score), SW480; format: cell-based, human
[3] = tested on: DLD-1; experiment: Drug combination screen (ATPlite, Synergy Score), DLD-1
[4] = tested on: HCT 116; experiment: Drug combination screen (ATPlite, Synergy Score), HCT 116
[5] = tested on: SNU-C2B; experiment: Drug combination screen (ATPlite, Synergy Score), SNU-C2B
[6] = compound in combination with IgG1-hDR5-01-G56T-E430G + IgG1-hDR5-05-E430G, LS-411N, 72 hour ATPlite, 6x6 matrix
[7] = compound in combination with IgG1-hDR5-01-G56T-E430G + IgG1-hDR5-05-E430G, SW480, 72 hour ATPlite, 6x6 matrix
[8] = compound in combination with IgG1-hDR5-01-G56T-E430G + IgG1-hDR5-05-E430G, DLD-1, 120 hour ATPlite, 6x6 matrix
[9] = compound in combination with IgG1-hDR5-01-G56T-E430G + IgG1-hDR5-05-E430G, HCT 116, 120 hour ATPlite, 6x6 matrix
[10] = compound in combination with IgG1-hDR5-01-G56T-E430G + IgG1-hDR5-05-E430G, SNU-C2B, 72 hour ATPlite, 6x6 matrix

CO[C@H]1C[C@@H]2CC[C@@H](C)[C@@](O)(O2)C(=O)C(=O)N2CCCC[C@H]2C(=O)O[C@H]([C@H](C)C[C@@H]2CC[C@@H](OCCO)[C@H](OC)C2)CC(=O)[C@H](C)/C=C(\C)[C@@H](O)[C@@H](OC)C(=O)[C@H](C)C[C@H](C)/C=C/C=C/C=C/1C [Everolimus]
Synergy Score LS-411N [1, 6]: 0.3 | Synergy Score SW480 [2, 7]: 1.6 | Synergy Score DLD-1 [3, 8]: 0.4 | Synergy Score HCT-116 [4, 9]: 0.4 | Synergy Score SNU-C2B [5, 10]: 3.2

CS(=O)(=O)c1ccc(C(=O)Nc2ccc(Cl)c(-c3ccccn3)c2)c(Cl)c1 [GDC-0449]
Synergy Score LS-411N [1, 6]: 0.2 | Synergy Score SW480 [2, 7]: 0.1 | Synergy Score DLD-1 [3, 8]: 0.1 | Synergy Score HCT-116 [4, 9]: 0 | Synergy Score SNU-C2B [5, 10]: 0.3

OCCn1cc(-c2ccc3c(c2)CC/C3=N\O)c(-c2ccncc2)n1 [GDC-0879]
Synergy Score LS-411N [1, 6]: 0.4 | Synergy Score SW480 [2, 7]: 1.6 | Synergy Score DLD-1 [3, 8]: 0.1 | Synergy Score HCT-116 [4, 9]: 0.2 | Synergy Score SNU-C2B [5, 10]: 0.7

CS(=O)(=O)N1CCN(Cc2cc3nc(-c4cccc5[nH]ncc45)nc(N4CCOCC4)c3s2)CC1 [GDC-0941]
Synergy Score LS-411N [1, 6]: 12.4 | Synergy Score SW480 [2, 7]: 12.9 | Synergy Score DLD-1 [3, 8]: 4.9 | Synergy Score HCT-116 [4, 9]: 2 | Synergy Score SNU-C2B [5, 10]: 7.1

CN(C)CCCn1cc(C2=C(c3c[nH]c4ccccc34)C(=O)NC2=O)c2ccccc21 [GF 109203X]
Synergy Score LS-411N [1]: 5.3 | Synergy Score SW480 [2]: 6.2 | Synergy Score DLD-1 [3]: 4.3 | Synergy Score HCT-116 [4]: 3 | Synergy Score SNU-C2B [5]: 1.6

O=C1NC(=O)/C(=C/c2ccc3nccc(-c4ccncc4)c3c2)S1 [GSK1059615]
Synergy Score LS-411N [1, 6]: 0.4 | Synergy Score SW480 [2, 7]: 1.7 | Synergy Score DLD-1 [3, 8]: 0.4 | Synergy Score HCT-116 [4, 9]: 0.6 | Synergy Score SNU-C2B [5, 10]: 0.8

CCc1cc(Nc2nccc(-c3c(-c4ccc(OC)c(C(=O)Nc5c(F)cccc5F)c4)nc4ccccn34)n2)c(OC)cc1N1CCC(N2CCN(S(C)(=O)=O)CC2)CC1 [GSK1904529A]
Synergy Score LS-411N [1, 6]: 6 | Synergy Score SW480 [2, 7]: 2.2 | Synergy Score DLD-1 [3, 8]: 1.4 | Synergy Score HCT-116 [4, 9]: 0.2 | Synergy Score SNU-C2B [5, 10]: 2.7

Nc1ccn([C@@H]2O[C@H](CO)[C@@H](O)C2(F)F)c(=O)n1 [Gemcitabine]
Synergy Score LS-411N [1, 6]: 5.7 | Synergy Score SW480 [2, 7]: 31.1 | Synergy Score DLD-1 [3, 8]: 20.3 | Synergy Score HCT-116 [4, 9]: 12.2 | Synergy Score SNU-C2B [5, 10]: 18.5

Cn1c2ccccc2c2c3c(c4c5ccccc5n(CCC#N)c4c21)CNC3=O [Go 6976]
Synergy Score LS-411N [1, 6]: 1.9 | Synergy Score SW480 [2, 7]: 3.1 | Synergy Score DLD-1 [3, 8]: 2.9 | Synergy Score HCT-116 [4, 9]: 0.9 | Synergy Score SNU-C2B [5, 10]: 1.7

CNC(=O)c1ccc(-c2cnc3ncc(Cc4ccc5ncccc5c4)n3n2)cc1F [INCB28060]
Synergy Score LS-411N [1, 6]: 0 | Synergy Score SW480 [2, 7]: 0 | Synergy Score DLD-1 [3, 8]: 0.2 | Synergy Score HCT-116 [4, 9]: 0.1 | Synergy Score SNU-C2B [5, 10]: 0.4

C[C@H](Nc1ncnc2nc[nH]c12)c1cc2cccc(Cl)c2c(=O)n1-c1ccccc1 [IPI-145]
Synergy Score LS-411N [1, 6]: 0.2 | Synergy Score SW480 [2, 7]: 0.1 | Synergy Score DLD-1 [3, 8]: 0 | Synergy Score HCT-116 [4, 9]: 0 | Synergy Score SNU-C2B [5, 10]: 1

COc1cc(C(=O)O)ccc1NC(=O)[C@@H]1N[C@@H](CC(C)(C)C)[C@](C#N)(c2ccc(Cl)cc2F)[C@H]1c1cccc(Cl)c1F [Idasanutlin]
Synergy Score LS-411N [1, 6]: 16.3 | Synergy Score SW480 [2, 7]: 6.1 | Synergy Score DLD-1 [3, 8]: 6.3 | Synergy Score HCT-116 [4, 9]: 3.2 | Synergy Score SNU-C2B [5, 10]: 10.4

Cn1cc(-c2ccc3nnc(C(F)(F)c4ccc5ncccc5c4)n3n2)cn1 [JNJ-38877605]
Synergy Score LS-411N [1, 6]: 0.1 | Synergy Score SW480 [2, 7]: 0 | Synergy Score DLD-1 [3, 8]: 0.1 | Synergy Score HCT-116 [4, 9]: 0 | Synergy Score SNU-C2B [5, 10]: 0.1

Cc1cc(NC(=O)c2cccc(NC(=O)/C=C/CN(C)C)c2)ccc1Nc1nccc(-c2cccnc2)n1 [JNK-IN-8]
Synergy Score LS-411N [1, 6]: 0.1 | Synergy Score SW480 [2, 7]: 0.4 | Synergy Score DLD-1 [3, 8]: 0.2 | Synergy Score HCT-116 [4, 9]: 0 | Synergy Score SNU-C2B [5, 10]: 1.1
